Reference: ChEMBL document CHEMBL1201862, “PubChem BioAssay data set” (2004)
Activity calls are given as the source filed them.

Experiments:
Cytochrome P450 1A2 = biological target: T1, Cytochrome P450 1A2 (Homo sapiens, UniProt P05177);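 further: PubChem cytochrome P450 panel assay, CYP1A2 panel member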
T1 sequence (P05177 whole entry): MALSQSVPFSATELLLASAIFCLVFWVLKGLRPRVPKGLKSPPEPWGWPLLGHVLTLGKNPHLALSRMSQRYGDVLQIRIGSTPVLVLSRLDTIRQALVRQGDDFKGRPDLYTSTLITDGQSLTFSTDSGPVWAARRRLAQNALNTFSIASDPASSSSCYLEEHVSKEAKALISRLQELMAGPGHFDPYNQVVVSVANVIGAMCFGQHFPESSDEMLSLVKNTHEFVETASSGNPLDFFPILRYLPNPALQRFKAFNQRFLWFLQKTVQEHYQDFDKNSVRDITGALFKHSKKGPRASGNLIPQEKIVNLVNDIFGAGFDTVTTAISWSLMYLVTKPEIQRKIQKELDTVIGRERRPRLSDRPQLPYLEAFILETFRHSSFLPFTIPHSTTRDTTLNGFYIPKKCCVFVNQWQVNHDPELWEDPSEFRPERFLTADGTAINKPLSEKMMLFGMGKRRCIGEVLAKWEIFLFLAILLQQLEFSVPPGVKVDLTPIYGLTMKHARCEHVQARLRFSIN

Cytochrome P450 2D6 = Cytochrome P450 2D6 (Homo sapiens, UniProt P10635);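 further: CYP2D6 member of a cytochrome P450 panel assay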
Chain of Cytochrome P450 2D6 (P10635 whole entry): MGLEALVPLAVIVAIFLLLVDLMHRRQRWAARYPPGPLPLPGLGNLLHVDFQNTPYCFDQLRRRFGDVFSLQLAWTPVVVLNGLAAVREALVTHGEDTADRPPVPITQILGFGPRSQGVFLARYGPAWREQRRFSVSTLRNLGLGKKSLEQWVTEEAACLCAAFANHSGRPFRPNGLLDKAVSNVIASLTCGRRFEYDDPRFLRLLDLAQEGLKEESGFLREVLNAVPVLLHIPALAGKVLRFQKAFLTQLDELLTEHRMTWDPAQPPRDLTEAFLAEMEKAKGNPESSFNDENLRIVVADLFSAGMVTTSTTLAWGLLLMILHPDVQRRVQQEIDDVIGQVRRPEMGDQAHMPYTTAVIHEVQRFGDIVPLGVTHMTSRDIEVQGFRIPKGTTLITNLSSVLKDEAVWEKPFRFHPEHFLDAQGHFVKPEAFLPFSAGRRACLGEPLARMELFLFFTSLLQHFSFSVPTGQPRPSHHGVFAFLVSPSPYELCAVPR

Cytochrome P450 3A4 = Cytochrome P450 3A4 (Homo sapiens, UniProt P08684);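 further: CYP3A4 tested as one member of a cytochrome P450 panel screen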
Chain of Cytochrome P450 3A4 (P08684 whole entry): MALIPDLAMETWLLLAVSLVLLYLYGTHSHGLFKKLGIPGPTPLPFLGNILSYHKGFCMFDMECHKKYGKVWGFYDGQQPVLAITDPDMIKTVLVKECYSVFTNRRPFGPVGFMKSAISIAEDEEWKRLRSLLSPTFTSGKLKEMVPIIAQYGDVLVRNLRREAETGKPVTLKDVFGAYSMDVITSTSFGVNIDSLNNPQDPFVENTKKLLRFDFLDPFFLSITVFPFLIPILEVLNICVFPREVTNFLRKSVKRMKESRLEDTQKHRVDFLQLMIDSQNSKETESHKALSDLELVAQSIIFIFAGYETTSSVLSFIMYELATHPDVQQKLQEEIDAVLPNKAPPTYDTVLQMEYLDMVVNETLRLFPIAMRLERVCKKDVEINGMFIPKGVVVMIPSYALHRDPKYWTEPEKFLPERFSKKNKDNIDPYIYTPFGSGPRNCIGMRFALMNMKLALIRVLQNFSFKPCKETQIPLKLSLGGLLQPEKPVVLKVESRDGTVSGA

[1] = Luminescence Cell-Based Dose Retest to Confirm Inhibitors of Cancer Stem Cells. [Related pubchem assays (depositor defined):AID2717, AID2721]; assay type: functional; settings: Homo sapiens
[2] = cytotoxicity in HMLE control line with eGFP shRNA, dose response, counter-screen for HMLE_sh_ECad selective toxicity project, cell-based, HMLE_sh_eGFP, luminescence (AID 463074); assay type: functional, Homo sapiens;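 further: HMLE human mammary epithelial cells expressing control shRNA against eGFP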
[3] = biological target: T2, Sentrin-specific protease 6 (Homo sapiens, UniProt Q9GZR1); assay type: functional;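 further: Luminescence-based dose-response confirmatory assay of SENP6 inhibition, following up an ultra-high-throughput screen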
T2 sequence (Q9GZR1 whole entry): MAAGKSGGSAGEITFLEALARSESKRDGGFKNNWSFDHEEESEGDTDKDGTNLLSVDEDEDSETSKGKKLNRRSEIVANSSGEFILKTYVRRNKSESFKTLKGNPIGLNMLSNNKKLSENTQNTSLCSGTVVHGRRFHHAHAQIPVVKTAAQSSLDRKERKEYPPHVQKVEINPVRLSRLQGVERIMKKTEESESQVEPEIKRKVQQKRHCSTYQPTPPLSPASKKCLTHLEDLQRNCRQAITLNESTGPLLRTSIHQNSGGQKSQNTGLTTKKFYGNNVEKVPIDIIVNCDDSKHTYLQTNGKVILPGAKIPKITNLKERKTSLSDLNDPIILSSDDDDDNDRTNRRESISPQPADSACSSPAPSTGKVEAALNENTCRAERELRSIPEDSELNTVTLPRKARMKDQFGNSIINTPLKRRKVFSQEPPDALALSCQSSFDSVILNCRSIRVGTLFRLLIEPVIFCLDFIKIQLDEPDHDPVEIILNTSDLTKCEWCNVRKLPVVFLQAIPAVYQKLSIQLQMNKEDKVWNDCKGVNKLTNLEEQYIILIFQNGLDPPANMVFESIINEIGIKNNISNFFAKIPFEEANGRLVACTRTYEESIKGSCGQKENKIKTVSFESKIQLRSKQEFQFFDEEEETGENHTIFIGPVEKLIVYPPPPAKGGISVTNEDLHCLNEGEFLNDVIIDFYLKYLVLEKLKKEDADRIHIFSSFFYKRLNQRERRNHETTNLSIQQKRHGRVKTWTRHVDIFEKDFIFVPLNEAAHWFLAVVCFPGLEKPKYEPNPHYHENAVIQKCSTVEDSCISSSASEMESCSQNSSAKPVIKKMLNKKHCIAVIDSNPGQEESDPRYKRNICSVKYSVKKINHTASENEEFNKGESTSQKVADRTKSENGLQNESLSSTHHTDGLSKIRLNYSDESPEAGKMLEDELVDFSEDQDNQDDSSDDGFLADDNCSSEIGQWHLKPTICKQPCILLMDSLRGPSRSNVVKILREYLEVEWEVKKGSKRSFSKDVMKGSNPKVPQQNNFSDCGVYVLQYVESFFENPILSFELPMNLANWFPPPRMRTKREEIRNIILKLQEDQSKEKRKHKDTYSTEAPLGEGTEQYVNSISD

H9c2 = assay: cells; assay type: functional, cell-based; settings: Rattus norvegicus, H9c2, Myocardium;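 further: confirmatory concentration-response retest of ultra-high-throughput screening hits for modulation of myocardial damage; cell death induced by hydrogen peroxide oxidative stress; compound pretreatment for 60 min then peroxide exposure for 2 h; potency is for protecting the cells against peroxide damage rather than for killing them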
[4] = biological target: T3, Sentrin-specific protease 7 (Homo sapiens, UniProt Q9BQF6); assay type: functional;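 further: Luminescence-based dose-response confirmation of ultra-high-throughput screening hits, measuring inhibition of SENP7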
T3 sequence (Q9BQF6 whole entry): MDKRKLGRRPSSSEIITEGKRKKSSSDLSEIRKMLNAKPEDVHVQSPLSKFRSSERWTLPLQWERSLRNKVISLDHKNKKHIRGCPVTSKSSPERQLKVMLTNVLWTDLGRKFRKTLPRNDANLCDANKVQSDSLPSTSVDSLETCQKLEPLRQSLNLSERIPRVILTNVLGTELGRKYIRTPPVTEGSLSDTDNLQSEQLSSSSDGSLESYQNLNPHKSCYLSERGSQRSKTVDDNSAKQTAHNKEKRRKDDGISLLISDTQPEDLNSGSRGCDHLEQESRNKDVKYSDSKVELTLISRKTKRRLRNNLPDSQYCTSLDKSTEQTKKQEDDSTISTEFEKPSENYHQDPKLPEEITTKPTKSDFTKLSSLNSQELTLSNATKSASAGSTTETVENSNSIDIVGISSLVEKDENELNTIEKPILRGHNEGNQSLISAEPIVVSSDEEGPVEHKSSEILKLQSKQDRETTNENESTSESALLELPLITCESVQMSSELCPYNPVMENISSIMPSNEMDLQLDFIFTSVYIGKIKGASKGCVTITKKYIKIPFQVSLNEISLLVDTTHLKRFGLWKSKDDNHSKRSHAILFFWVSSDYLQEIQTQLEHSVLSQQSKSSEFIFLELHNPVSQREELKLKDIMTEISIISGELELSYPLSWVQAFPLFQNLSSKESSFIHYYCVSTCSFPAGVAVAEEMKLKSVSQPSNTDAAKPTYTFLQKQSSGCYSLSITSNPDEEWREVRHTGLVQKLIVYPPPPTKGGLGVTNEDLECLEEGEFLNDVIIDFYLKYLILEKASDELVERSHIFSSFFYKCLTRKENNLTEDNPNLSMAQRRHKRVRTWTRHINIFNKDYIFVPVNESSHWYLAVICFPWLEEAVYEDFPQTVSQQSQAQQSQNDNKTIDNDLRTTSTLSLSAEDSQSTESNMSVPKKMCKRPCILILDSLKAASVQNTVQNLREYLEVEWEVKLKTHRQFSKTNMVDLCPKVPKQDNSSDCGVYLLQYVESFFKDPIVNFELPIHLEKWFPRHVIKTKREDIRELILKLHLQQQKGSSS

Caspase-3 = biological target: T4, Caspase-3 (Homo sapiens, UniProt P42574); assay type: functional;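 further: Dose-response selectivity test against caspase-3 for candidate inhibitors of sentrin-specific proteases (SENPs)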
T4 sequence (P42574 whole entry): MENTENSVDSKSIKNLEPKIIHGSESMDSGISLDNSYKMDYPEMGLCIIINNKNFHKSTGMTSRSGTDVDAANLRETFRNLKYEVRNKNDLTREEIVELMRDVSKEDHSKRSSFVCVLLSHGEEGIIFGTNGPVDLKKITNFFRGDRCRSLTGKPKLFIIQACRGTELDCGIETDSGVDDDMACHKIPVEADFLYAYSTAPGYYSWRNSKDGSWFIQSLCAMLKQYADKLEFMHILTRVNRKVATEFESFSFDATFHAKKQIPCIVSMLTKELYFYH

[5] = biological target: T5, Sentrin-specific protease 8 (Homo sapiens, UniProt Q96LD8); assay type: functional;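 further: luminescence read-out of SENP8 inhibition, dose-response confirmation following an ultra-high-throughput screen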
T5 sequence (Q96LD8 whole entry): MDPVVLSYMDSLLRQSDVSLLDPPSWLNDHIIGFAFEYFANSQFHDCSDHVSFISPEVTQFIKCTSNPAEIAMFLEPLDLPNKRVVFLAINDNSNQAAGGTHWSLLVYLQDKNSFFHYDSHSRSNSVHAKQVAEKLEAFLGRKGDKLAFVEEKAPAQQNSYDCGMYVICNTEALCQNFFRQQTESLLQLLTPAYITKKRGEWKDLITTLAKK

[6] = cytotoxicity in HEK-293T cells, dose response, cytotoxicity control for TCR NF-kB inhibitor project, luminescence, T-cell screen hits (AID 489026); assay type: functional, cell-based;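 further: cells exposed to compound about 14 hours before the viability readout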
[7] = cytotoxicity toward DRD oncogenic fibroblasts, dose response, cell-based, non-viral oncogenic, luminescence (AID 1934); assay type: functional; settings: Homo sapiens
[8] = inhibitors of firefly luciferase expression or activity, dose response, H4 neuroglioma cells, luminescence (AID 1990); assay type: functional, cell-based
BJ [9] = assay: cytotoxicity toward BJ-TERT fibroblasts, dose response, cell-based, RAS-independent, luminescence (AID 1933); assay type: functional; settings: Homo sapiens
BJ [10] = assay: cells; assay type: functional, cell-based; settings: Homo sapiens
BJ [11] = assay: cytotoxicity toward BJ-TERT-LT-ST fibroblasts, dose response, cell-based, RAS-independent, luminescence (AID 1935); assay type: functional; settings: Homo sapiens;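 further: BJ fibroblasts immortalized with TERT plus LT and ST oncogenes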
[12] = inhibitors of SNCA 5'UTR-driven reporter translation, confirmation, H4 neuroglioma cells, luminescence (AID 1988); assay type: functional, cell-based
[13] = Luminescence Cell-Based Dose Response HTS to Identify Inhibitors of 5'UTR Stem-Loop Driven Prion Protein mRNA Translation in H4 Neuroglioblastoma Cells. [Related pubchem assays: 1827 (Project Summary), 1813 (Primary HTS)]; assay type: functional
[14] = miR-122 activators in hepatoma reporter cells, dose response, cell-based, Huh7 psiCHECK-miR122, Renilla luciferase, cherry-picked (AID 651956); assay type: functional;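 further: huh7 hepatoma cells stably carrying a psiCHECK-2 miR-122 sensor plasmid; renilla luciferase signal reporting endogenous miR-122 activity after 48 h compound exposure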
[15] = HEp-2 cell cytotoxicity, dose response, cytotoxicity control for RSV inhibitor project, HTS (AID 2410); assay type: functional; settings: human respiratory syncytial virus
[16] = cytotoxicity toward NIH3T3 fibroblasts, dose response, counter-screen, cell-based, ATP luminescence, mouse fibroblasts (AID 2010); assay type: functional;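 further: cells exposed to compound for about 90 hours before reading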
[17] = inhibitors of intracellular T. cruzi replication, confirmation, NIH3T3 host cells, beta-gal luminescence (AID 2044); assay type: functional, cell-based;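 further: intracellular parasites grown in NIH/3T3 mouse fibroblasts as host cells; luminescent beta-galactosidase reporter signal from transgenic T. cruzi replicating inside host cells; inhibitors lower the luminescence signal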
Cytochrome P450 2C9 = Cytochrome P450 2C9 (Homo sapiens, UniProt P11712)
Chain of Cytochrome P450 2C9 (P11712 whole entry): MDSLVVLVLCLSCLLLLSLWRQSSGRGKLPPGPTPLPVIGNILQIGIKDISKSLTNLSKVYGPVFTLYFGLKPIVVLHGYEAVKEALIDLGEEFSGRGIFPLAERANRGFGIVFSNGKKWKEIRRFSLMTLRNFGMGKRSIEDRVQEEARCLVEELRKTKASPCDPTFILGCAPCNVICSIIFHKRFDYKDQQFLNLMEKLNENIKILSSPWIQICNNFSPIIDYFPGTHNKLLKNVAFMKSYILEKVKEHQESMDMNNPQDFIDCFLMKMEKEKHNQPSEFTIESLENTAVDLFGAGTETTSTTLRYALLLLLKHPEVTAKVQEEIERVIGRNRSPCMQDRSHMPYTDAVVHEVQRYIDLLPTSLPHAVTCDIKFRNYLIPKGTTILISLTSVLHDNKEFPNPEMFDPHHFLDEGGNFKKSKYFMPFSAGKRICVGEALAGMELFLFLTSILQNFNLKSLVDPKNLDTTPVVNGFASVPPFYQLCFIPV

Cytochrome P450 2C19 = Cytochrome P450 2C19 (Homo sapiens, UniProt P33261); assay: Cytochrome panel assay with activity outcomes. Panel member name: p450-cyp2c19 Compounds with AC50 equal or less than 10 uM are considered active; assay type: functional
Chain of Cytochrome P450 2C19 (P33261 whole entry): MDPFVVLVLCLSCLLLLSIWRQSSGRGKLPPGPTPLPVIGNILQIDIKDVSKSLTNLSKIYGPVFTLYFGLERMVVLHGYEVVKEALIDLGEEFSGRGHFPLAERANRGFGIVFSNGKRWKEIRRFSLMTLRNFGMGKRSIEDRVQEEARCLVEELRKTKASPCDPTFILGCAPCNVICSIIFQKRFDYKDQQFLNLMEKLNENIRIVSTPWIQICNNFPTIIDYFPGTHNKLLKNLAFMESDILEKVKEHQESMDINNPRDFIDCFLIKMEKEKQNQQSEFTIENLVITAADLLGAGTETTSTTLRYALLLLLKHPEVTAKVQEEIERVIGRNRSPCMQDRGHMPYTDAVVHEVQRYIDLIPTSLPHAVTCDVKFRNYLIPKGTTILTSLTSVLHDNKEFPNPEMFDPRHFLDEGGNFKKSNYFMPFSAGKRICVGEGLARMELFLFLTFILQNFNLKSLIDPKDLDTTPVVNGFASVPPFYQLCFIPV

[18] = biological target: DNA (cytosine-5)-methyltransferase 1 (Homo sapiens, UniProt P26358); assay: DNMT1 methyltransferase inhibitors, confirmation, biochemical, fluorescent molecular beacon (AID 602386); assay type: functional
Chain of DNA (cytosine-5)-methyltransferase 1 (P26358 whole entry): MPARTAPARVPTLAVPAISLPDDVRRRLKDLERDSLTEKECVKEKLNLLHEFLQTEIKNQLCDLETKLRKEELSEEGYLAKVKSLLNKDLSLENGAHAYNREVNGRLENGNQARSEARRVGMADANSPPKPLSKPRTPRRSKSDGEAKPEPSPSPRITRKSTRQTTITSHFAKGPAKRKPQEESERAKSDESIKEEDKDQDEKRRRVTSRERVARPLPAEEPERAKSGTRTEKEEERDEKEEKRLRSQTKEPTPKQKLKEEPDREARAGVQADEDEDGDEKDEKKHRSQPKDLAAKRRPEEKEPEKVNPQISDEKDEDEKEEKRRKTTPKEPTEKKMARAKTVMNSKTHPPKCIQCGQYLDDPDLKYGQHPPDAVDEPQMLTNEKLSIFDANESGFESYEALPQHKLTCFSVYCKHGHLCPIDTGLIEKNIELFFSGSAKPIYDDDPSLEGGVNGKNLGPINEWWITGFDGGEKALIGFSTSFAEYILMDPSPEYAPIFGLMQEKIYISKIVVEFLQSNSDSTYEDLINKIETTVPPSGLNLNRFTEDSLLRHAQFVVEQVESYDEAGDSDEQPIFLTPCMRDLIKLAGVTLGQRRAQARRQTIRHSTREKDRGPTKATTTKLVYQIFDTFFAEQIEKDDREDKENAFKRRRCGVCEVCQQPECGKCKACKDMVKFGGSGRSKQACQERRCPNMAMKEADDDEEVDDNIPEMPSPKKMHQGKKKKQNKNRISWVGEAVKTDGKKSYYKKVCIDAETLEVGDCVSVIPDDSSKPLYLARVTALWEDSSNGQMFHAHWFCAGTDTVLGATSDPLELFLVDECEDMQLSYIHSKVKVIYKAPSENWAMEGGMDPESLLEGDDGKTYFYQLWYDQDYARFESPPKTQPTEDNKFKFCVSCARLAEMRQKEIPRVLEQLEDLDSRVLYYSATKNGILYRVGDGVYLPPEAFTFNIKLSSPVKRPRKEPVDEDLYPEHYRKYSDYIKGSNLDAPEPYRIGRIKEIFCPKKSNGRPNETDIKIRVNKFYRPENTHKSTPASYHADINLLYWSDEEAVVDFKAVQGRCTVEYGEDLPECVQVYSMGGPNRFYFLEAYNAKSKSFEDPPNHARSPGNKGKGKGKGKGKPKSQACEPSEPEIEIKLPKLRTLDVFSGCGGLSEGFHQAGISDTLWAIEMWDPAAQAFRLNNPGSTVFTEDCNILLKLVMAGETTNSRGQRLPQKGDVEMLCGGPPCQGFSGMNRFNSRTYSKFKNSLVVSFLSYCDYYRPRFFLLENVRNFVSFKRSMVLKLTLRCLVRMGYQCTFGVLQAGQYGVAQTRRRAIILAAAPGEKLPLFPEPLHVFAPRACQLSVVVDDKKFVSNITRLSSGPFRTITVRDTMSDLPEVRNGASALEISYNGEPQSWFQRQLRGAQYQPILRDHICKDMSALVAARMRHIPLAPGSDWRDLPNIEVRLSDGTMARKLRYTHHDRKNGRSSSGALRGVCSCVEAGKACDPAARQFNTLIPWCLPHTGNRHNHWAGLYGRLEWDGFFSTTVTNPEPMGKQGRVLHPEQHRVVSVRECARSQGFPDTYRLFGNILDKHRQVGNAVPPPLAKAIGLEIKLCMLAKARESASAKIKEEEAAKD

Structure (SMILES) | AC50 [1] | AC50 [2] | IC50 [3] | IC50 [4] | IC50 (Caspase-3) | IC50 [5] | also measured
COc1ccc2c(=O)c(-c3ccccc3C)c(C)oc2c1 | – | – | – | – | – | – | AC50 (Cytochrome P450 1A2): 31.6 µM (inconclusive); AC50 (Cytochrome P450 2D6): inconclusive; AC50 (Cytochrome P450 3A4): inconclusive
COc1ccc(CCNc2cc(C)nc3c(-c4ccc(Cl)cc4)cnn23)cc1OC | 4.77 µM (active) | 24.1 µM (active) | – | – | – | – | –
CCn1c(SCC(=O)N2CCN(c3ccc(F)cc3)CC2)nc2ccccc2c1=O | 20.1 µM (active) | 58.9 µM (active) | – | – | – | – | –
Cc1c(Cl)cnc(NC(=O)COC(=O)c2ccc([N+](=O)[O-])s2)c1Cl | – | – | 5.92 µM (active) | 10.6 µM (active) | 11.1 µM (active) | 6.85 µM (active) | IC50 (H9c2): > 79 µM (inactive)
O=[As](O)(O)c1ccc(NCc2ccccc2)cc1 | – | – | – | – | – | – | AC50 (Cytochrome P450 2D6): inconclusive
Cc1ccc(NS(=O)(=O)c2ccc(-c3cnc(C4CC4)o3)cc2)c(C)c1 | < 0.16 µM (active) | 5.23 µM (inconclusive) | – | – | – | – | IC50 [6]: 51.2 µM (inactive); EC50 [7]: 18.9 µM (inconclusive); EC50 [8]: 4.97 µM (inconclusive); EC50 (BJ [9]): 1.2 µM (active); EC50 (BJ [10]): 0.985 µM (active); EC50 (BJ [11]): 0.847 µM (inconclusive); EC50 [12]: 0.502 µM (active); EC50 [13]: 3.3 µM (active)
O=C(O)c1cccc(-c2nnn(Cc3ccccc3Cl)n2)c1 | – | – | > 100 µM (inactive) | > 100 µM (inactive) | 15.6 µM (active) | 10.9 µM (active) | –
COc1ccc(-c2c(C)nn3c(N)c(-c4ccccc4)cnc23)cc1OC | 11.9 µM (active) | 34.8 µM (active) | – | – | – | – | AC50 [14]: 6.96 µM (active); CC50 [15]: 43.3 µM (active)
Cc1ccc(C(=O)COC(=O)c2cccc(NC(=O)c3ccc([N+](=O)[O-])cc3[N+](=O)[O-])c2)cc1 | – | – | 4.89 µM (active) | 5.97 µM (active) | 22.2 µM (active) | > 100 µM (inactive) | EC50 [16]: > 60 µM (not active); EC50 [17]: 1.11 µM (active)
CN(C)Cc1c[nH]c2ncnc(O)c12 | – | – | – | – | – | – | AC50 (Cytochrome P450 2D6): inconclusive
Cc1noc(C)c1-c1cc(NC2CCNCC2)ncn1 | – | – | – | – | – | – | AC50 (Cytochrome P450 2C9): inconclusive; AC50 (Cytochrome P450 1A2): 0.126 µM (inconclusive); AC50 (Cytochrome P450 2C19): inconclusive; AC50 (Cytochrome P450 3A4): inconclusive
CCCCCCCCC(=O)c1c(OC)oc(C=O)cc1=O | – | – | – | – | – | – | IC50 [18]: 8.25 µM (active)
CCOC(=O)c1ccccc1N/C=C/C(=O)c1ccccc1 | – | – | 16.2 µM (active) | 9.9 µM (active) | 33.1 µM (active) | 18.7 µM (active) | –
